Literature values in patent publication US20240131116A1, “METHODS AND THREAPEUTIC COMBINATIONS FOR TREATING IDIOPATHIC INTRACRANIAL HYPERTENSION AND CLUSTER HEADACHES” (NBO PHARMA LLC, priority 2021, published 2024).

Experiments:
[1] = human, in vivo
IIH [2] = settings: for most frequent / most common side effects / visual field grades: topiramate 100 to 150 mg daily, acetazolamide 1000 to 1500 mg/day
[3] = all patients treated
IIH [4] = test system: IIH
[5] = in vivo

## NS(=O)(=O)c1ccc(N2CCCCS2(=O)=O)cc1 [sulthiame, p-(tetrahydro-2H-1,2-thiazin-2-yl)benzenesulfonamide, S,S-dioxide]
[1]
  patients with gastric complaints: about 10%

## CC1(C)O[C@@H]2[C@@H](CO[C@@]3(COS(N)(=O)=O)OC(C)(C)O[C@@H]23)O1 [topiramate, 2,3:4,5-bis-O-(1-methylethylidene)-beta-D-fructopyranose sulfamate]
IIH [2]; during 12 months period
  weight loss, mean: 9.75 kg
IIH [2]
  most frequent / most common side effects: distal paresthesias, concentration difficulties and weight loss
  visual field grades: Significant improvement

## CC(=O)Nc1nnc(S(N)(=O)=O)s1 [acetazolamide, N-(5-sulfamoyl-1,3,4-thiadiazol-2-yl) acetamide]
[3]
  patients who discontinued treatment due to adverse events: Up to 20%
IIH [4]; maximum tolerated dose of up to 4 g/day
  vision (perimetric mean deviation, papilledema grade, vision-related quality of life) versus placebo: improved vision
IIH [4]; up to 4 g/day
  adverse events significantly more frequent than in placebo group: paresthesia, dysgeusia, fatigue, decreased carbon dioxide level, nausea, vomiting, diarrhea, and tinnitus
IIH [2]
  most frequent / most common side effects: fatigue and tingling of the hands and feet
  visual field grades: Significant improvement

## L-alanyl-glycyl-L-cysteinyl-L-lysyl-L-asparagyl-L-phenylalanyl-L-phenylalanyl-L-tryptophyl-L-lysyl-L-threonyl-L-phenylalanyl-L-threonyl-L-seryl-L-cysteine (3->14)-disulfide [somatostatin]
[5]
  biological half-life: 2-3 minutes
